Data reported in ChEMBL document CHEMBL1152295, “Novel 3,3-disubstituted pyrrolidines as selective triple serotonin/norepinephrine/dopamine reuptake inhibitors” (Bioorg Med Chem Lett, 2008).

Assays:
in vitro [1] = conditions: human, liver microsomes
in vitro [2] = conditions: human
in vitro [3] = conditions: human; remark: listed apart in the source
Caco-2 [4] = conditions: human, caco-2, 10 µM
Caco-2 [5] = conditions: human, caco-2, 10 µM; remark: listed apart in the source

Row | microsomal CLint (in vitro [1]; Stability) [µL/min/mg] | Papp A→B at 10 µM (in vitro [2]; Caco-2, Papp) [×10⁻⁶ cm/s] | Papp B→A at 10 µM (in vitro [3]; Caco-2, Papp) [×10⁻⁶ cm/s] | SMILES | also measured
1 | 77 |  |  | COc1cccc(CC2(c3ccc4[nH]ccc4c3)CCNC2)c1 (stereo not drawn) | 
2 | 12.8 | 4 | 24 | CN(C)C(=O)c1cc2cc(C3(Cc4ccccc4)CCNC3)ccc2[nH]1 (stereo not drawn) | 
3 | 198 |  |  | c1ccc(CC2(c3ccc4sccc4c3)CCNC2)cc1 (stereo not drawn) | 
4 | 28 | 10 | 22 | c1ccc(CC2(c3ccc4[nH]ncc4c3)CCNC2)cc1 (stereo not drawn) | 
5 | 47.8 | 3.5 | 3.4 | CCOC(=O)c1cc2cc(C3(Cc4ccccc4)CCNC3)ccc2[nH]1 (stereo not drawn) | 
6 |  |  |  | CCCC1(c2ccc3[nH]ccc3c2)CCNC1 (stereo not drawn) | microsomal CLint (in vitro [1]): 2.3 µL/min/mg; Papp A→B at 10 µM (in vitro [2]; Caco-2): 16.5 ×10⁻⁶ cm/s; Papp B→A at 10 µM (in vitro [3]; Caco-2): 24 ×10⁻⁶ cm/s
7 |  |  |  | c1ccc(CC2(c3ccc4[nH]ccc4c3)CCNC2)cc1 (stereo in doubt; 16) [5-(3-BENZYLPYRROLIDIN-3-YL)-1H-INDOLE (STRUCTURAL MIX)] | Papp (Caco-2 [4]): 14 ×10⁻⁶ cm/s; Papp (Caco-2 [5]): 17 ×10⁻⁶ cm/s
8 | 86 | 3.2 | 18 | c1ccc(CC2(c3ccc4[nH]ccc4c3)CCNC2)nc1 (stereo not drawn) | 
9 | 84 |  |  | Fc1ccc(CC2(c3ccc4[nH]ccc4c3)CCNC2)cc1 (stereo not drawn) | 
10 | 38 | 9.4 | 19 | CCCCC1(c2ccc3[nH]ccc3c2)CCNC1 (stereo not drawn) | 
11 | 1.4 | 0.6 | 17 | NC(=O)c1cc2cc(C3(Cc4ccccc4)CCNC3)ccc2[nH]1 (stereo not drawn) | 
12 | 154 | 21 | 9.9 | c1ccc(CC2(c3ccc4[nH]ccc4c3)CCNC2)cc1 (stereo in doubt; (+)-16) [5-(3-BENZYLPYRROLIDIN-3-YL)-1H-INDOLE (STRUCTURAL MIX)] | 
13 |  |  |  | Clc1ccc([C@]23CNC[C@H]2C3)cc1Cl [AMITIFADINE] | microsomal CLint (in vitro [1]): 47 µL/min/mg; Papp A→B at 10 µM (in vitro [2]; Caco-2): 2.9 ×10⁻⁶ cm/s; Papp B→A at 10 µM (in vitro [3]; Caco-2): 2.1 ×10⁻⁶ cm/s
14 | 106 |  |  | Cn1ccc2cc(C3(Cc4ccccc4)CCNC3)ccc21 (stereo not drawn) | 
